Data from US20070249562A1, “TREATMENT OF ATRIAL FIBRILLATION” (priority 2006, published 2007).

What was measured:
Atrial Fibrillation = assay: Randomized, double-blind placebo-controlled study in high-risk CABG patients; atrial fibrillation by 12-lead ECG; assay type: in vivo, human; settings: for Reduction of AF compared to placebo: from POD 4 to POD 90
Source text: A randomized, double-blind placebo-controlled, dose-ranging, parallel-arm multi-center study was undertaken, on high-risk patients undergoing CABG surgery with cardiopulmonary bypass. Patients were identified as “high risk” if they had two or more of the following risk factors: • Age greater than 65 years • Current smoker • History of diabetes mellitus requiring treatment other than diet • Evidence of left ventricular dysfunction or congestive heart failure • History of a previous non-disabling stroke, transient ischemic attack, or carotid endarterectomy • Urgent CABG intervention defined as the need to stay in the hospital (although the patient may be operated on within a normal scheduling routine). • History of myocardial infarction that occurred more than 48 hours but less than 6 weeks prior to CABG surgery • Prior peripheral artery surgery or angioplasty • Moderate renal dysfunction defined as […] >133 μmol/L (1.5 mg/dl), but <250 μmol/L (2.8 mg/dl) • Presence of at least one asymptomatic carotid artery stenosis (>50% ) either in one or two carotid arteries. Approximately 900 high risk pre-CABG patients in 42 different treatment centers in North America were screened and randomized to three groups of approximately 300 patients each, prior to their bypass surgery, as follows. Patients were either placed in a control group (placebo), treated with 250 mg/day of pyridoxal-5′-phosphate, (250 mg/day), or treated with 750 mg day of pyridoxal-5′-phosphate (750 mg/day). The first dose of study medication was administered at 3-10 hours prior to CABG surgery. In the event of surgery delay or rescheduling, a second pre-operative dose of pyridoxal-5′-phosphate was administered so that all patients received study medication 3-10 hours before surgery. Treatment continued for 30 days after surgery (post operative day (POD) 30). Patients received follow-up evaluations up to and including postoperative day (POD) 4, on POD 30 and on POD 90. 12-lead ECG were taken at baseline (Pre-Op), POD 2, POD 4, POD 30 and POD 90 with patients on placebo, 250 mg/day pyridoxal-5′-phosphate (P5P), and 750 mg/day pyridoxal-5′-phosphate. The data from baseline, POD 4 and POD 90 were analyzed.

[1] = in water, alcohol, and ether; cited from earlier work
[2] = system: ATP induced calcium ion influx into cells (P2X purinoceptors); settings: a recent evaluation; suggested due to inhibition of P2X purinoceptors; cited from earlier work

## Cc1ncc(COP(=O)(O)O)c(C=O)c1O [pyridoxal-5′-phosphate, 3-hydroxy-2-methyl-5-[(phosphonooxy)methyl]-4-pyridine-carboxaldehyde]
Atrial Fibrillation; 250 mg dose, p=0.0084
  Reduction of AF compared to placebo: 51.75%
Atrial Fibrillation; 750 mg dose, p=0.013
  Reduction of AF compared to placebo: 49.08%
Atrial Fibrillation; 250 mg/day P5P (n = 301)
  Number of patients who had AF at POD 4: 56
  Percent of patients who had AF at POD 4: 18.60%
  Number of patient who had AF at POD 90: 17
  Percent of patient who had AF at POD 90: 5.65%
Atrial Fibrillation; 750 mg/day P5P (n = 302)
  Number of patients who had AF at POD 4: 63
  Percent of patients who had AF at POD 4: 20.86%
  Number of patient who had AF at POD 90: 18
  Percent of patient who had AF at POD 90: 5.96%
[1]
  Solubility: essentially insoluble
[2]
  Effect on ATP induced calcium ion influx into cells: inhibits
